Experimental data taken from publication PMC5218480 (PLoS ONE, 2017).

System: MV-4-11 cells
Assay: Gene expression microarray analysis (Affymetrix PrimeView) and GSEA
Format: cell-based, human
Parameters: RFU PODN (11730768_x_at) / Fold change /veh PODN (11730768_x_at) / RFU LINC00158 (11744669_a_at) / Fold change /veh LINC00158 (11744669_a_at) / RFU DUSP10 (11751237_a_at) / Fold change /veh DUSP10 (11751237_a_at) / RFU ID3 (11757404_x_at) / Fold change /veh ID3 (11757404_x_at) / RFU PLEKHG5 (11737974_s_at) / Fold change /veh PLEKHG5 (11737974_s_at) / RFU LRRC4B (11730491_at) / Fold change /veh LRRC4B (11730491_at) / RFU GIMAP4 (11747438_a_at) / Fold change /veh GIMAP4 (11747438_a_at) / RFU KRT8 (11758183_x_at) / Fold change /veh KRT8 (11758183_x_at) / RFU CNN1 (11734310_a_at) / Fold change /veh CNN1 (11734310_a_at) / RFU VPS37D (11726825_at) / Fold change /veh VPS37D (11726825_at) / RFU C10orf10 (11716522_x_at) / Fold change /veh C10orf10 (11716522_x_at) / RFU KIR2DL2 /// KIR2DL4 /// KIR2DL5A /// KIR2DL5B /// KIR2DS1 /// KIR2DS2 /// KIR2DS3 /// KIR2DS4 /// KIR3DL3 /// KIR3DL3 /// KIR3DS1 (11738374_at) / Fold change /veh KIR2DL2 /// KIR2DL4 /// KIR2DL5A /// KIR2DL5B /// KIR2DS1 /// KIR2DS2 /// KIR2DS3 /// KIR2DS4 /// KIR3DL3 /// KIR3DL3 /// KIR3DS1 (11738374_at) / RFU C1QL1 (11718748_at) / Fold change /veh C1QL1 (11718748_at) / RFU TMPRSS4 (11747572_a_at) / Fold change /veh TMPRSS4 (11747572_a_at) / RFU HAMP (11756126_x_at) / Fold change /veh HAMP (11756126_x_at) / RFU RNFT2 (11725882_a_at) / Fold change /veh RNFT2 (11725882_a_at) / RFU NR4A2 (11747474_a_at) / Fold change /veh NR4A2 (11747474_a_at) / RFU ABCC12 (11746883_a_at) / Fold change /veh ABCC12 (11746883_a_at) / RFU TMEM136 (11760407_x_at) / Fold change /veh TMEM136 (11760407_x_at) / RFU CLDN22 /// WWC2 (11732394_at) / Fold change /veh CLDN22 /// WWC2 (11732394_at) / RFU HLA-DPB1 (11760878_x_at) / Fold change /veh HLA-DPB1 (11760878_x_at) / RFU SPINT1 (11716480_a_at) / Fold change /veh SPINT1 (11716480_a_at) / RFU GAP43 (11754022_s_at) / Fold change /veh GAP43 (11754022_s_at) / RFU A4GNT (11735810_at) / Fold change /veh A4GNT (11735810_at) / RFU PRB3 (11715151_x_at) / Fold change /veh PRB3 (11715151_x_at) / RFU TUBB4B (11761932_at) / Fold change /veh TUBB4B (11761932_at) / RFU CAPN14 (11732068_a_at) / Fold change /veh CAPN14 (11732068_a_at) / RFU TMCC2 (11721928_a_at) / Fold change /veh TMCC2 (11721928_a_at) / RFU IRGQ (11745062_a_at) / Fold change /veh IRGQ (11745062_a_at) / RFU FAM174B (11720279_a_at) / Fold change /veh FAM174B (11720279_a_at) / RFU TMPRSS4 (11748680_a_at) / Fold change /veh TMPRSS4 (11748680_a_at) / RFU FAM212B (11763350_a_at) / Fold change /veh FAM212B (11763350_a_at) / RFU PLEKHG5 (11743358_a_at) / Fold change /veh PLEKHG5 (11743358_a_at) / RFU ZSCAN30 (11745921_a_at) / Fold change /veh ZSCAN30 (11745921_a_at) / RFU CMKLR1 (11741424_a_at) / Fold change /veh CMKLR1 (11741424_a_at) / RFU LOC101060620 /// MAPK8IP1 (11723275_at) / Fold change /veh LOC101060620 /// MAPK8IP1 (11723275_at) / RFU SPTSSB (11747773_x_at) / Fold change /veh SPTSSB (11747773_x_at) / RFU PRSS12 (11739890_at) / Fold change /veh PRSS12 (11739890_at) / RFU BIN1 (11741810_x_at) / Fold change /veh BIN1 (11741810_x_at) / RFU WNT11 (11732464_a_at) / Fold change /veh WNT11 (11732464_a_at) / RFU C10orf10 (11716521_a_at) / Fold change /veh C10orf10 (11716521_a_at) / RFU C5orf56 (11738089_at) / Fold change /veh C5orf56 (11738089_at) / RFU CYB561 (11721691_x_at) / Fold change /veh CYB561 (11721691_x_at) / RFU ANKRD19P (11752326_a_at) / Fold change /veh ANKRD19P (11752326_a_at) / RFU OR2T12 /// OR2T33 /// OR2T8 (11738714_s_at) / Fold change /veh OR2T12 /// OR2T33 /// OR2T8 (11738714_s_at) / RFU VCAN (11748164_a_at) / Fold change /veh VCAN (11748164_a_at) / RFU JSRP1 (11732532_at) / Fold change /veh JSRP1 (11732532_at) / RFU KRTAP10-11 (11738290_x_at) / Fold change /veh KRTAP10-11 (11738290_x_at) / RFU MYO3A (11730013_a_at) / Fold change /veh MYO3A (11730013_a_at) / RFU EBF3 (11725865_a_at) / Fold change /veh EBF3 (11725865_a_at) / RFU CAMK2N1 (11719241_x_at) / Fold change /veh CAMK2N1 (11719241_x_at) / RFU C5orf56 (11738088_a_at) / Fold change /veh C5orf56 (11738088_a_at) / RFU OLFML3 (11715873_a_at) / Fold change /veh OLFML3 (11715873_a_at) / RFU LOC100653217 /// NTM (11731650_a_at) / Fold change /veh LOC100653217 /// NTM (11731650_a_at) / RFU MAPK11 (11762145_a_at) / Fold change /veh MAPK11 (11762145_a_at) / RFU FIZ1 (11724087_x_at) / Fold change /veh FIZ1 (11724087_x_at) / RFU OASL (11726364_x_at) / Fold change /veh OASL (11726364_x_at) / RFU SOX15 (11748057_x_at) / Fold change /veh SOX15 (11748057_x_at) / RFU CD79A (11719716_a_at) / Fold change /veh CD79A (11719716_a_at) / RFU HIST1H1D (11736915_at) / Fold change /veh HIST1H1D (11736915_at) / RFU CASKIN2 (11723855_a_at) / Fold change /veh CASKIN2 (11723855_a_at) / RFU LOC730098 (11760151_x_at) / Fold change /veh LOC730098 (11760151_x_at) / RFU OR4N2 (11742367_at) / Fold change /veh OR4N2 (11742367_at) / RFU PRRT2 (11749266_a_at) / Fold change /veh PRRT2 (11749266_a_at) / RFU SNX32 (11753110_a_at) / Fold change /veh SNX32 (11753110_a_at) / RFU CDHR5 (11726645_a_at) / Fold change /veh CDHR5 (11726645_a_at) / RFU RCAN1 (11760418_a_at) / Fold change /veh RCAN1 (11760418_a_at) / RFU FAM167A (11723789_a_at) / Fold change /veh FAM167A (11723789_a_at) / RFU FAM26E (11764081_at) / Fold change /veh FAM26E (11764081_at) / RFU ISYNA1 (11749810_s_at) / Fold change /veh ISYNA1 (11749810_s_at) / RFU ACY1 (11761880_at) / Fold change /veh ACY1 (11761880_at) / RFU 11764098_at / Fold change /veh 11764098_at / RFU SAMD14 (11745864_x_at) / Fold change /veh SAMD14 (11745864_x_at) / RFU NPB (11741838_a_at) / Fold change /veh NPB (11741838_a_at) / RFU TMPRSS6 (11731388_a_at) / Fold change /veh TMPRSS6 (11731388_a_at) / RFU KRTAP10-2 (11738614_at) / Fold change /veh KRTAP10-2 (11738614_at) / RFU ARHGAP8 /// PRR5-ARHGAP8 (11727945_x_at) / Fold change /veh ARHGAP8 /// PRR5-ARHGAP8 (11727945_x_at) / RFU KRTAP5-7 /// NADSYN1 (11734609_at) / Fold change /veh KRTAP5-7 /// NADSYN1 (11734609_at) / RFU RASL12 (11751679_a_at) / Fold change /veh RASL12 (11751679_a_at) / RFU CDKN2B (11736163_a_at) / Fold change /veh CDKN2B (11736163_a_at) / RFU PRF1 (11729649_at) / Fold change /veh PRF1 (11729649_at) / RFU, ZNF638 /// ZNF638-IT1 / Fold change vs veh, ZNF638 /// ZNF638-IT1 / RFU, PANK3 / Fold change vs veh, PANK3 / RFU, SH3YL1 / Fold change vs veh, SH3YL1 / RFU, ZEB2 / Fold change vs veh, ZEB2 / RFU, NRIP1 / Fold change vs veh, NRIP1 / RFU, PTTG1IP / Fold change vs veh, PTTG1IP / RFU, CAPN2 / Fold change vs veh, CAPN2 / RFU, MED14 / Fold change vs veh, MED14 / RFU, SNORA58 / Fold change vs veh, SNORA58 / RFU, C1orf63 / Fold change vs veh, C1orf63 / RFU, LRRFIP1 / Fold change vs veh, LRRFIP1 / RFU, NDUFAF7 / Fold change vs veh, NDUFAF7 / RFU, SLC12A2 / Fold change vs veh, SLC12A2 / RFU, IBTK / Fold change vs veh, IBTK / RFU, ESF1 / Fold change vs veh, ESF1 / Fold change vs veh, TMEM50B / RFU, TAOK1 / Fold change vs veh, TAOK1 / RFU, ACBD3 / Fold change vs veh, ACBD3 / RFU, TMA16 / Fold change vs veh, TMA16 / RFU, RWDD3 / Fold change vs veh, RWDD3 / RFU, BCAT1 / Fold change vs veh, BCAT1 / RFU, EDEM3 / Fold change vs veh, EDEM3 / RFU, TMEM33 / Fold change vs veh, TMEM33 / RFU, WDR75 / Fold change vs veh, WDR75 / RFU, AHCTF1 / Fold change vs veh, AHCTF1 / RFU, TFRC / Fold change vs veh, TFRC / RFU, ZDHHC17 / Fold change vs veh, ZDHHC17 / RFU, NOM1 / Fold change vs veh, NOM1 / RFU, ARL8B / Fold change vs veh, ARL8B / RFU, ZBTB11 / Fold change vs veh, ZBTB11 / RFU, TAMM41 / Fold change vs veh, TAMM41 / RFU, KIAA1704 /// LOC100996395 / Fold change vs veh, KIAA1704 /// LOC100996395 / RFU, ING1 / Fold change vs veh, ING1 / RFU, TRMT61B / Fold change vs veh, TRMT61B / RFU, FUBP3 / Fold change vs veh, FUBP3 / RFU, TP53 / Fold change vs veh, TP53 / RFU, TNKS2 / Fold change vs veh, TNKS2 / RFU, ZFP14 / Fold change vs veh, ZFP14 / RFU, ACTR2 / Fold change vs veh, ACTR2 / RFU, PPP3R1 / Fold change vs veh, PPP3R1 / RFU, PIK3R1 / Fold change vs veh, PIK3R1 / RFU, HNRNPA1 / Fold change vs veh, HNRNPA1 / RFU, RNF170 / Fold change vs veh, RNF170 / RFU, ZNF28 / Fold change vs veh, ZNF28 / RFU, RNGTT / Fold change vs veh, RNGTT / RFU, OGT / Fold change vs veh, OGT / RFU, BRD1 / Fold change vs veh, BRD1 / RFU, MARS / Fold change vs veh, MARS / RFU, ZNF655 / Fold change vs veh, ZNF655 / RFU, FAHD1 / Fold change vs veh, FAHD1 / RFU, BDP1 / Fold change vs veh, BDP1 / RFU, LRRCC1 / Fold change vs veh, LRRCC1 / RFU, ARID1A / Fold change vs veh, ARID1A / RFU, ZNF146 / Fold change vs veh, ZNF146 / RFU, ZNF330 / Fold change vs veh, ZNF330 / RFU, GPN3 / Fold change vs veh, GPN3 / RFU, C9orf123 / Fold change vs veh, C9orf123 / RFU, N4BP2L2 / Fold change vs veh, N4BP2L2 / RFU, ARFIP1 / Fold change vs veh, ARFIP1 / RFU, FAM179B / Fold change vs veh, FAM179B / RFU, BCL10 / Fold change vs veh, BCL10 / RFU, UHRF1BP1L / Fold change vs veh, UHRF1BP1L / RFU, BET1 / Fold change vs veh, BET1 / RFU, CNOT2 / Fold change vs veh, CNOT2 / RFU, ZNF268 / Fold change vs veh, ZNF268 / Fold change vs veh, ZNF507 / RFU, DGCR2 / Fold change vs veh, DGCR2 / RFU, WDSUB1 / Fold change vs veh, WDSUB1 / Fold change vs veh, HSP90B1 /// MIR3652 / RFU, ADSS / Fold change vs veh, ADSS / RFU, GK / Fold change vs veh, GK / RFU, ZNF148 / Fold change vs veh, ZNF148 / RFU, TAF9 / Fold change vs veh, TAF9 / RFU, SLC1A5 / Fold change vs veh, SLC1A5 / RFU, SLMO2 / Fold change vs veh, SLMO2 / RFU, ABCC4 / Fold change vs veh, ABCC4 / RFU, LOC101060439 /// RAP1B / Fold change vs veh, LOC101060439 /// RAP1B / RFU, RFX7 / Fold change vs veh, RFX7 / RFU, GTPBP10 / Fold change vs veh, GTPBP10 / RFU, CNEP1R1 / Fold change vs veh, CNEP1R1 / RFU, BIVM-ERCC5 /// ERCC5 / Fold change vs veh, BIVM-ERCC5 /// ERCC5 / RFU, ILF3 / Fold change vs veh, ILF3 / RFU 11762660_at / Fold change /veh 11762660_at / RFU VCAN (11757783_s_at) / Fold change /veh VCAN (11757783_s_at) / RFU DDX43 (11728927_at) / Fold change /veh DDX43 (11728927_at) / RFU KRT8 (11758188_x_at) / Fold change /veh KRT8 (11758188_x_at) / RFU NKD1 (11759106_at) / Fold change /veh NKD1 (11759106_at) / RFU SRD5A1 (11742802_a_at) / Fold change /veh SRD5A1 (11742802_a_at) / RFU TPSAB1 /// TPSB2 (11721975_s_at) / Fold change /veh TPSAB1 /// TPSB2 (11721975_s_at) / RFU GSTM3 (11746129_a_at) / Fold change /veh GSTM3 (11746129_a_at) / RFU IL23R (11737362_x_at) / Fold change /veh IL23R (11737362_x_at) / RFU TMEM51 (11727254_a_at) / Fold change /veh TMEM51 (11727254_a_at) / RFU PIWIL2 (11732686_x_at) / Fold change /veh PIWIL2 (11732686_x_at) / RFU ORM1 (11744905_x_at) / Fold change /veh ORM1 (11744905_x_at) / RFU CCDC152 (11743942_at) / Fold change /veh CCDC152 (11743942_at) / RFU ECM1 (11717891_a_at) / Fold change /veh ECM1 (11717891_a_at) / RFU IL23R (11748794_a_at) / Fold change /veh IL23R (11748794_a_at) / RFU TNFAIP8L3 (11732012_x_at) / Fold change /veh TNFAIP8L3 (11732012_x_at) / RFU MBOAT4 (11741988_at) / Fold change /veh MBOAT4 (11741988_at) / RFU 11764193_at / Fold change /veh 11764193_at / RFU TMEM53 (11763286_at) / Fold change /veh TMEM53 (11763286_at) / RFU MAGEB2 (11727129_at) / Fold change /veh MAGEB2 (11727129_at) / RFU TMEM200A (11744735_a_at) / Fold change /veh TMEM200A (11744735_a_at) / RFU CCDC152 (11751479_a_at) / Fold change /veh CCDC152 (11751479_a_at) / RFU FAM211A (11726209_a_at) / Fold change /veh FAM211A (11726209_a_at) / RFU RGS16 (11746705_a_at) / Fold change /veh RGS16 (11746705_a_at) / RFU VCAN (11755009_s_at) / Fold change /veh VCAN (11755009_s_at) / RFU RHOB (11743442_s_at) / Fold change /veh RHOB (11743442_s_at) / RFU RGS16 (11720943_a_at) / Fold change /veh RGS16 (11720943_a_at) / RFU RGS16 (11720944_at) / Fold change /veh RGS16 (11720944_at) / RFU, VPS4B / Fold change vs veh, VPS4B / RFU, CREB1 / Fold change vs veh, CREB1 / RFU, DNAJC13 / Fold change vs veh, DNAJC13 / RFU, GNAQ / Fold change vs veh, GNAQ / RFU, CDK5R1 / Fold change vs veh, CDK5R1 / RFU, ZRANB3 / Fold change vs veh, ZRANB3 / RFU, CUL4A / Fold change vs veh, CUL4A / RFU, CCNY / Fold change vs veh, CCNY / RFU, UFL1 / Fold change vs veh, UFL1 / RFU, COG3 / Fold change vs veh, COG3 / RFU, DIAPH2 / Fold change vs veh, DIAPH2 / RFU, SKA2 / Fold change vs veh, SKA2 / RFU, AFF3 / Fold change vs veh, AFF3 / RFU, LMF1 / Fold change vs veh, LMF1 / RFU, IPO11 / Fold change vs veh, IPO11 / RFU, DFFB / Fold change vs veh, DFFB / RFU, FOXP1 / Fold change vs veh, FOXP1 / RFU, CARD8 / Fold change vs veh, CARD8 / RFU, STRN3 / Fold change vs veh, STRN3 / RFU, ADK / Fold change vs veh, ADK / RFU, RASSF2 / Fold change vs veh, RASSF2 / RFU, WIPF1 / Fold change vs veh, WIPF1 / RFU, LARP1B / Fold change vs veh, LARP1B / RFU, RASA1 / Fold change vs veh, RASA1 / RFU, RB1 / Fold change vs veh, RB1 / RFU, PPFIA1 / Fold change vs veh, PPFIA1 / RFU, MAT2A / Fold change vs veh, MAT2A / RFU, CCT5 / Fold change vs veh, CCT5 / RFU, WDR92 / Fold change vs veh, WDR92 / RFU, CUX1 / Fold change vs veh, CUX1 / RFU, TTC7A / Fold change vs veh, TTC7A / RFU, TMEM135 / Fold change vs veh, TMEM135 / RFU, DEPTOR / Fold change vs veh, DEPTOR / RFU, CPM / Fold change vs veh, CPM / RFU, DNAJB6 / Fold change vs veh, DNAJB6 / RFU, CACNA2D3 / Fold change vs veh, CACNA2D3 / RFU, DTX4 / Fold change vs veh, DTX4 / RFU, TFCP2 / Fold change vs veh, TFCP2 / RFU, GMCL1 /// GMCL1P1 / Fold change vs veh, GMCL1 /// GMCL1P1 / RFU, AEBP2 / Fold change vs veh, AEBP2 / RFU, SNHG1 /// SNORD22 /// SNORD25 /// SNORD26 /// SNORD27 /// SNORD28 /// SNORD29 /// SNORD31 / Fold change vs veh, SNHG1 /// SNORD22 /// SNORD25 /// SNORD26 /// SNORD27 /// SNORD28 /// SNORD29 /// SNORD31 / Fold change (Aza/veh), C12orf56 (ProbeSet 11735607_a_at) / Fold change (ACY-1035/veh), C12orf56 (ProbeSet 11735607_a_at) / Fold change (Aza/veh), FGFR1OP (ProbeSet 11751329_s_at) / Fold change (ACY-1035/veh), FGFR1OP (ProbeSet 11751329_s_at) / Fold change (Aza/veh), VPS36 (ProbeSet 11739960_a_at) / Fold change (ACY-1035/veh), VPS36 (ProbeSet 11739960_a_at) / RFU SYPL1 (11715823_x_at) / Fold change /veh SYPL1 (11715823_x_at) / RFU IGFBP7 (11715501_s_at) / Fold change /veh IGFBP7 (11715501_s_at) / RFU REEP3 (11722064_at) / Fold change /veh REEP3 (11722064_at) / RFU IGLL1 (11728026_x_at) / Fold change /veh IGLL1 (11728026_x_at): dose or concentration left out as unconfirmed
Settings: MV-4-11 cells, 48 hours

Nc1ccc(-c2cccs2)cc1NC(=O)c1ccc2c(c1)cc(C1CC1)n2CCN1CCOCC1 [ACY-1035]
RFU DUSP10 (11751237_a_at): 30.58 RFU
